# Molecular target: T1, Cbl-b (Homo sapiens, UniProt Q13191)
# T1 construct: Cbl-b-HiBit KI Jurkat Cells were purchased from Promega; host or cells: Cbl-b-HiBiT knock-in Jurkat cells
# Test: Cbl-b Degradation Method B (Nano-Glo HiBiT lytic detection)
# Type: cell-based
# Settings: Cbl-b-HiBit KI Jurkat Cells, incubated at least 6-24 hours; for DC50: half maximal degradation, read-out: Cbl-b Degredation Method B IC50; for Dmax: maximum degradation observed, read-out: Cbl-b Degredation Method B Dmax (%)
# In short: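 An 11-point, 3-fold compound dilution was applied for 6-24 hours to Jurkat cells carrying HiBiT-tagged endogenous Cbl-b. Lytic HiBiT luminescence quantified residual protein. Outputs are DC50 and Dmax relative to DMSO control.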
# T1 sequence (Q13191 whole entry): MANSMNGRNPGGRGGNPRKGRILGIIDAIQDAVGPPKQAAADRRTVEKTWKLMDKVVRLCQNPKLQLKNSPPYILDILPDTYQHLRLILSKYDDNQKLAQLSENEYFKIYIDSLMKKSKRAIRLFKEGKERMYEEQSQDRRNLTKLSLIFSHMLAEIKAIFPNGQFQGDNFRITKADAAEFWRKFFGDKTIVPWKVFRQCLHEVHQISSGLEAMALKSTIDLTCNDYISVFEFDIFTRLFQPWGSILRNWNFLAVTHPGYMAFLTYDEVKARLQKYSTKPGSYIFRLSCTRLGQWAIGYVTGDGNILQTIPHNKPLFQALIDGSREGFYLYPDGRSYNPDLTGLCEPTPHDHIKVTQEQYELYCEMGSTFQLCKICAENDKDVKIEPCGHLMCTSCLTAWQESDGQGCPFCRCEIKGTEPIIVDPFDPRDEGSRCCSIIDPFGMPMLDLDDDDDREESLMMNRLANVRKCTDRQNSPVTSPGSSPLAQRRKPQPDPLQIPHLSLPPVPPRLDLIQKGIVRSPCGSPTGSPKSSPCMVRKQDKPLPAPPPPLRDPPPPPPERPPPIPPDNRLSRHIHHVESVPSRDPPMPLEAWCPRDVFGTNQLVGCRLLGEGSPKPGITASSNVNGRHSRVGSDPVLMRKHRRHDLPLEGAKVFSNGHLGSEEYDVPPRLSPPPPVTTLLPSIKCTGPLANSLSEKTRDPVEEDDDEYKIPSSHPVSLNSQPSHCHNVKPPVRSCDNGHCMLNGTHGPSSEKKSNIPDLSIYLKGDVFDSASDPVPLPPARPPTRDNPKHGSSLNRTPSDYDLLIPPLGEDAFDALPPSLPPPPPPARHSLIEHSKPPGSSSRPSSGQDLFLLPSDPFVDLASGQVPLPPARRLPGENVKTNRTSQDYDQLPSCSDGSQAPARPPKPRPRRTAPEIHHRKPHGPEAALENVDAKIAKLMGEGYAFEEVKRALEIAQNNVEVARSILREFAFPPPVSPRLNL
SMILES,DC50,Dmax
"CC(C)n1c(=O)n(C2CCC(=O)NC2=O)c2ccc(N3CCN(Cc4ccc(-c5cc6c(c(C(F)(F)F)c5)CN(c5cccc([C@]7(Cc8nncn8C)C[C@@H](C#N)C7)c5)C6=O)cc4)CC3)cc21 (stereo partly shown) [Example 295, (1r,3r)-3-(3-{6-[4-({4-[1-(2,6-dioxopiperidin-3-yl)-2-oxo-3-(propan-2-yl)-2,3-dihydro-1H-1,3-benzodiazol-5-yl]piperazin-1-yl}methyl)phenyl]-1-oxo-4-(trifluoromethyl)-2,3-dihydro-1H-isoindol-2-yl}phenyl)-3-[(4-methyl-4H-1,2,4-triazol-3-yl)methyl]cyclobutane-1-carbonitrile]",> 500 nM,–
"Cn1cnnc1CC1(c2cccc(N3Cc4c(cc(CNC5CCN(c6ccc7c(c6)C(=O)N(C6CCC(=O)NC6=O)C7=O)CC5)cc4C(F)(F)F)C3=O)c2)COC1 (stereo not shown) [Example 38, 2-(2,6-dioxopiperidin-3-yl)-5-[4-({[2-(3-{3-[(4-methyl-4H-1,2,4-triazol-3-yl)methyl]oxetan-3-yl}phenyl)-3-oxo-7-(trifluoromethyl)-2,3-dihydro-1H-isoindol-5-yl]methyl}amino)piperidin-1-yl]-2,3-dihydro-1H-isoindole-1,3-dione]",> 500 nM,–
"Cn1cnnc1CC1(c2cccc(N3Cc4c(cc(CN5CCC(CN(C)[C@H]6C[C@H](Oc7ccc8c(c7)C(=O)N(C7CCC(=O)NC7=O)C8=O)C6)CC5)cc4C(F)(F)F)C3=O)c2)COC1 (stereo partly shown) [Example 60, 2-(2,6-dioxopiperidin-3-yl)-5-[(1r,3r)-3-{methyl[(1-{[2-(3-{3-[(4-methyl-4H-1,2,4-triazol-3-yl)methyl]oxetan-3-yl}phenyl)-3-oxo-7-(trifluoromethyl)-2,3-dihydro-1H-isoindol-5-yl]methyl}piperidin-4-yl)methyl]amino}cyclobutoxy]-2,3-dihydro-1H-isoindole-1,3-dione]",> 500 nM,–
"Cn1cnnc1CC1(c2cccc(N3Cc4c(cc(CN5CC6(CCN(c7ccc8c(c7)C(=O)N(C7CCC(=O)NC7=O)C8=O)CC6)C5)cc4C(F)(F)F)C3=O)c2)COC1 (stereo not shown) [Example 49, 2-(2,6-dioxopiperidin-3-yl)-5-(2-{[2-(3-{3-[(4-methyl-4H-1,2,4-triazol-3-yl)methyl]oxetan-3-yl}phenyl)-3-oxo-7-(trifluoromethyl)-2,3-dihydro-1H-isoindol-5-yl]methyl}-2,7-diazaspiro[3.5]nonan-7-yl)-2,3-dihydro-1H-isoindole-1,3-dione]",> 500 nM,–
"Cc1cc(N2C[C@@H]3C[C@H]2CN3CC2CCC3(CC2)CN(c2cc4c(c(C(F)(F)F)c2)CN(c2cccc([C@]5(Cc6nncn6C)C[C@@H](C#N)C5)c2)C4=O)C3)c(F)c2c1C(=O)N(C1CCC(=O)NC1=O)C2 (stereo partly drawn) [Example 271, (1r,3r)-3-{3-[6-(7-{[(1S,4S)-5-[2-(2,6-dioxopiperidin-3-yl)-4-fluoro-7-methyl-1-oxo-2,3-dihydro-1H-isoindol-5-yl]-2,5-diazabicyclo[2.2.1]heptan-2-yl]methyl}-2-azaspiro[3.5]nonan-2-yl)-1-oxo-4-(trifluoromethyl)-2,3-dihydro-1H-isoindol-2-yl]phenyl}-3-[(4-methyl-4H-1,2,4-triazol-3-yl)methyl]cyclobutane-1-carbonitrile]",5 to 50 nM,35 to 70%
"COc1cc(N2CCN(Cc3cc4c(c(C(F)(F)F)c3)CN(c3cccc(C5(Cc6nncn6C)COC5)c3)C4=O)CC2)cc2c1C(=O)N(C1CCC(=O)NC1=O)C2=O (stereo not shown) [Example 52, 2-(2,6-dioxopiperidin-3-yl)-4-methoxy-6-(4-{[2-(3-{3-[(4-methyl-4H-1,2,4-triazol-3-yl)methyl]oxetan-3-yl}phenyl)-3-oxo-7-(trifluoromethyl)-2,3-dihydro-1H-isoindol-5-yl]methyl}piperazin-1-yl)-2,3-dihydro-1H-isoindole-1,3-dione]",> 500 nM,–
"Cn1cnnc1CC1(c2cccc(N3Cc4c(cc(CN5CC(C6CN(c7ccc(Oc8ccc9c(c8)C(=O)N(C8CCC(=O)NC8=O)C9=O)cc7)C6)C5)cc4C(F)(F)F)C3=O)c2)COC1 (stereo not shown) [Example 64, 2-(2,6-dioxopiperidin-3-yl)-5-[4-(1′-{[2-(3-{3-[(4-methyl-4H-1,2,4-triazol-3-yl)methyl]oxetan-3-yl}phenyl)-3-oxo-7-(trifluoromethyl)-2,3-dihydro-1H-isoindol-5-yl]methyl}-[3,3′-biazetidin]-1-yl)phenoxy]-2,3-dihydro-1H-isoindole-1,3-dione]",> 500 nM,–
"Cn1cnnc1CC1(c2cccc(N3Cc4c(cc(CN5CCN(CCN(C)[C@H]6C[C@H](Oc7ccc8c(c7)C(=O)N(C7CCC(=O)NC7=O)C8=O)C6)CC5)cc4C(F)(F)F)C3=O)c2)COC1 (stereo partly shown) [Example 63, 2-(2,6-dioxopiperidin-3-yl)-5-[(1r,3r)-3-{methyl[2-(4-{[2-(3-{3-[(4-methyl-4H-1,2,4-triazol-3-yl)methyl]oxetan-3-yl}phenyl)-3-oxo-7-(trifluoromethyl)-2,3-dihydro-1H-isoindol-5-yl]methyl}piperazin-1-yl)ethyl]amino}cyclobutoxy]-2,3-dihydro-1H-isoindole-1,3-dione]",> 500 nM,–

# More lines, now with the values ahead:
DC50,Dmax,SMILES
> 500 nM,–,"Cn1cnnc1CC1(c2cccc(-n3cc4c(C(F)(F)F)cc(CN5CCC[C@H](CN6CCC[C@@H](OC7CCN(c8ccc9c(c8F)CN(C8CCC(=O)NC8=O)C9=O)CC7)C6)C5)cc4n3)c2)COC1 (stereo partly drawn) [Example 297, 3-[4-fluoro-5-(4-{[(3R)-1-{[(3S)-1-{[2-(3-{3-[(4-methyl-4H-1,2,4-triazol-3-yl)methyl]oxetan-3-yl}phenyl)-4-(trifluoromethyl)-2H-indazol-6-yl]methyl}piperidin-3-yl]methyl}piperidin-3-yl]oxy}piperidin-1-yl)-1-oxo-2,3-dihydro-1H-isoindol-2-yl]piperidine-2,6-dione]"
50 to 500 nM,> 70%,"Cn1cnnc1CC1(c2cccc(N3Cc4c(cc(CN5CCN(c6ccc7c(c6)C(=O)N(C6CCC(=O)NC6=O)C7=O)CC5)cc4C(F)(F)F)C3=O)c2)COC1 (stereo not shown) [Example 32, 2-(2,6-dioxopiperidin-3-yl)-5-(4-{[2-(3-{3-[(4-methyl-4H-1,2,4-triazol-3-yl)methyl]oxetan-3-yl}phenyl)-3-oxo-7-(trifluoromethyl)-2,3-dihydro-1H-isoindol-5-yl]methyl}piperazin-1-yl)-2,3-dihydro-1H-isoindole-1,3-dione]"
> 500 nM,–,"Cn1cnnc1CC1(c2cccc(-n3cc4c(C(F)(F)F)cc(CN5CCC[C@H](CN6CCC(CN7CCN(c8ccc9c(c8F)CN(C8CCC(=O)NC8=O)C9=O)CC7)CC6)C5)cc4n3)c2)COC1 (stereo partly drawn) [Example 256, 3-(4-fluoro-5-{4-[(1-{[(3R)-1-{[2-(3-{3-[(4-methyl-4H-1,2,4-triazol-3-yl)methyl]oxetan-3-yl}phenyl)-4-(trifluoromethyl)-2H-indazol-6-yl]methyl}piperidin-3-yl]methyl}piperidin-4-yl)methyl]piperazin-1-yl}-1-oxo-2,3-dihydro-1H-isoindol-2-yl)piperidine-2,6-dione]"
< 5 nM,> 70%,"CC(C)n1c(=O)n(C2CCC(=O)NC2=O)c2ccc(N3CCC(O[C@H]4CC[C@@H](CN5CCN(C[C@H]6CCCN(Cc7cc(C(F)(F)F)c8cn(-c9cccc(C%10(Cc%11nncn%11C)COC%10)c9)nc8c7)C6)CC5)CC4)CC3)cc21 (stereo partly drawn) [Example 268, 3-[2-oxo-3-(propan-2-yl)-5-(4-{[(1r,4r)-4-[(4-{[(3S)-1-{[2-(3-{3-[(4-methyl-4H-1,2,4-triazol-3-yl)methyl]oxetan-3-yl}phenyl)-4-(trifluoromethyl)-2H-indazol-6-yl]methyl}piperidin-3-yl]methyl}piperazin-1-yl)methyl]cyclohexyl]oxy}piperidin-1-yl)-2,3-dihydro-1H-1,3-benzodiazol-1-yl]piperidine-2,6-dione]"
> 500 nM,–,"Cn1cnnc1CC1(c2cccc(N3Cc4c(cc(CN5CCC(CN6CC7(CCN(c8ccc9c(c8)CN(C8CCC(=O)NC8=O)C9=O)CC7)C6)CC5)cc4C(F)(F)F)C3=O)c2)COC1 (stereo not shown) [Example 66, 3-(5-{2-[(1-{[2-(3-{3-[(4-methyl-4H-1,2,4-triazol-3-yl)methyl]oxetan-3-yl}phenyl)-3-oxo-7-(trifluoromethyl)-2,3-dihydro-1H-isoindol-5-yl]methyl}piperidin-4-yl)methyl]-2,7-diazaspiro[3.5]nonan-7-yl}-1-oxo-2,3-dihydro-1H-isoindol-2-yl)piperidine-2,6-dione]"
< 5 nM,35 to 70%,"C[C@@H]1C[C@H](CN2CCC(CN3CCC(CN4CCN(c5ccc6c(c5)C(=O)N(C5CCC(=O)NC5=O)C6=O)CC4)CC3)CC2)CN(Cc2cc3c(c(C(F)(F)F)c2)CN(c2cccc(C4(Cc5nncn5C)COC4)c2)C3=O)C1 (stereo partly drawn) [Example 72, 2-(2,6-dioxopiperidin-3-yl)-5-[4-({1-[(1-{[(3R,5R)-5-methyl-1-{[2-(3-{3-[(4-methyl-4H-1,2,4-triazol-3-yl)methyl]oxetan-3-yl}phenyl)-3-oxo-7-(trifluoromethyl)-2,3-dihydro-1H-isoindol-5-yl]methyl}piperidin-3-yl]methyl}piperidin-4-yl)methyl]piperidin-4-yl}methyl)piperazin-1-yl]-2,3-dihydro-1H-isoindole-1,3-dione]"
> 500 nM,–,"Cn1cnnc1CC1(c2cccc(N3Cc4c(cc(CN5CCC6(CC5)CCN(c5ccc7c(c5)C(=O)N(C5CCC(=O)NC5=O)C7=O)CC6)cc4C(F)(F)F)C3=O)c2)COC1 (stereo not shown) [Example 27, 2-(2,6-dioxopiperidin-3-yl)-5-(9-{[2-(3-{3-[(4-methyl-4H-1,2,4-triazol-3-yl)methyl]oxetan-3-yl}phenyl)-3-oxo-7-(trifluoromethyl)-2,3-dihydro-1H-isoindol-5-yl]methyl}-3,9-diazaspiro[5.5]undecan-3-yl)-2,3-dihydro-1H-isoindole-1,3-dione]"

# Reference: US20260184710A1, “CASITAS B-LINEAGE LYMPHOMA PROTOONCOGENE B (CBL-B) DEGRADING COMPOUNDS AND ASSOCIATED METHODS OF USE” (Arvinas Operations, Inc., priority 2022, published 2026)
